Reference: PubChem BioAssay AID1671294

Biological target: Homeodomain-interacting protein kinase 3 (Homo sapiens) (UniProt Q9H422)
Test: HIPK3 kinase inhibitors, dose response, biochemical, Z'-LYTE, FRET, protease-coupled, direct format (AID 1671294)
Settings: Z'-LYTE FRET kinase activity, recombinant HIPK3

Chain of Homeodomain-interacting protein kinase 3 (Homo sapiens) (Q9H422 whole entry, looked up): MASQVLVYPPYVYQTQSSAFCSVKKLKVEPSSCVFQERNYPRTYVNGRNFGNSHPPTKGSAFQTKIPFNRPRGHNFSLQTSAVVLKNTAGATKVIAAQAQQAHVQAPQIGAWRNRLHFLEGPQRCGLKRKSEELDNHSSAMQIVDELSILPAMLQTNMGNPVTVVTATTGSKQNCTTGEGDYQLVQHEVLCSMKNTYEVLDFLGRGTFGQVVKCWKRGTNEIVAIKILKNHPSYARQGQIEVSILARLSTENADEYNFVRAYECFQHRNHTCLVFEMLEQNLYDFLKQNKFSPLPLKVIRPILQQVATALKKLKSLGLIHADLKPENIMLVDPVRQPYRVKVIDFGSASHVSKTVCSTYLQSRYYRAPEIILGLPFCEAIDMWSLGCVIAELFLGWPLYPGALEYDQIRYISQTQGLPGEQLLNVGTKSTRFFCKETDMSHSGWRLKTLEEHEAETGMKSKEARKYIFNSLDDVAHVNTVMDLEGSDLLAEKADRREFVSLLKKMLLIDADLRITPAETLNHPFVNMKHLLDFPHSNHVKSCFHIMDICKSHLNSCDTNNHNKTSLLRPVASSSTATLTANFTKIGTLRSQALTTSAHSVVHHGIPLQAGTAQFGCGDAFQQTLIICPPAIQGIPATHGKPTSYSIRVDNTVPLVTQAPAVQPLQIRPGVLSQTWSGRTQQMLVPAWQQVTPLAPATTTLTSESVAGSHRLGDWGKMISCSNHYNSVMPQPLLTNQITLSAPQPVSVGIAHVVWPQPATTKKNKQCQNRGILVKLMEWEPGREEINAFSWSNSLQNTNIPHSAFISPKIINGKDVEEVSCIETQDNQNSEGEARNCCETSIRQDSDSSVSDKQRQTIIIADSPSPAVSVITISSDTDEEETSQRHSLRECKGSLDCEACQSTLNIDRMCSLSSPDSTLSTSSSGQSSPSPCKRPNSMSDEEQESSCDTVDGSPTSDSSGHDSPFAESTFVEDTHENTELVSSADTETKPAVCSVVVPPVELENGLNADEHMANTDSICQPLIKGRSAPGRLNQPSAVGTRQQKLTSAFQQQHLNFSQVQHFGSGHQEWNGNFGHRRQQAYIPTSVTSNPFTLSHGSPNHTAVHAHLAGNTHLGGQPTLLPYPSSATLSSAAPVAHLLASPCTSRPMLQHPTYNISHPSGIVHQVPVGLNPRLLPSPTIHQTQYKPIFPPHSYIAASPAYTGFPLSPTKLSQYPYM

IC50: 5.1 µM
Structure (SMILES): Brc1c(Br)c(Br)c2n[nH]nc2c1Br
